Measured values: patent publication US10770169B2, “Method of providing a treatment to a subject based on a dynamic pathway map” (THE REGENTS OF THE UNIVERSITY OF CALIFORNIA, priority 2010, dated 2020)
“Also recorded” adds a separate entry of the source.

Test system: luminal, basal, claudin-low and ERBB2AMP breast cancer cell lines
Assay: Associations of clinically relevant subtypes and response (non-parametric ANOVA or t-test on GI50 ranks)
Format: cell-based, human
Conditions: for Subtype specificity: Table 6, most sensitive subtype, FDR p<0.20
Excerpt: A central premise of this study is that associations between responses and molecular subtypes observed in preclinical cell line analyses will be recapitulated in the clinic in instances where the predictive molecular features in the cell lines are mirrored in human tumors. We established response-subtype associations by using non-parametric ANOVAs to compare […] values across transcriptional and genomics subtypes.
Differences between GI50s of the groups were compared with a non-parametric ANOVA or t-test, as appropriate, on the ranks. We combined the p-values for the three sets of tests and used false discovery rate (FDR) to correct for multiple testing. For the three-sample test, we performed a post-hoc analysis on the compounds with a significant class effect by comparing each group to all others to determine which group was most sensitive. The p-values for the post-hoc test were FDR-corrected together. In all cases, FDR p<0.20 was deemed significant. […] Analyses were performed in R.

Row | Compound | Subtype specificity | subtype-specific response (sensitivity by transcriptional subtype) (GI50 across subtypes)
1 | COc1ncc(-c2ccc3nccc(-c4ccnnc4)c3c2)cc1NS(=O)(=O)c1ccc(F)cc1F [GSK2126458] | Luminal/ERBB2AMP | –
2 | N.N.[Cl][Pt][Cl] [Cisplatin] | Basal | preferential activity in basal and/or claudin-low cell lines; also recorded: basal cell lines are preferentially sensitive; also recorded: Basal breast cancer cell lines preferentially respond
3 | O=C1NC(=O)/C(=C/c2ccc3nccc(-c4ccncc4)c3c2)S1 [GSK1059615] | Luminal/ERBB2AMP | –
4 | O=C(CCCCCCC(=O)Nc1ccccc1)NO [Vorinostat] | Luminal | –
